Reference: patent US20230192705A1, “SHP2 INHIBITORS, COMPOSITIONS AND USES THEREOF” (Betta Pharmaceuticals Co., Ltd, priority 2020, published 2023)

Biological target: T1, SHP2 (Homo sapiens, UniProt Q06124)
T1 sequence (Q06124 1-593): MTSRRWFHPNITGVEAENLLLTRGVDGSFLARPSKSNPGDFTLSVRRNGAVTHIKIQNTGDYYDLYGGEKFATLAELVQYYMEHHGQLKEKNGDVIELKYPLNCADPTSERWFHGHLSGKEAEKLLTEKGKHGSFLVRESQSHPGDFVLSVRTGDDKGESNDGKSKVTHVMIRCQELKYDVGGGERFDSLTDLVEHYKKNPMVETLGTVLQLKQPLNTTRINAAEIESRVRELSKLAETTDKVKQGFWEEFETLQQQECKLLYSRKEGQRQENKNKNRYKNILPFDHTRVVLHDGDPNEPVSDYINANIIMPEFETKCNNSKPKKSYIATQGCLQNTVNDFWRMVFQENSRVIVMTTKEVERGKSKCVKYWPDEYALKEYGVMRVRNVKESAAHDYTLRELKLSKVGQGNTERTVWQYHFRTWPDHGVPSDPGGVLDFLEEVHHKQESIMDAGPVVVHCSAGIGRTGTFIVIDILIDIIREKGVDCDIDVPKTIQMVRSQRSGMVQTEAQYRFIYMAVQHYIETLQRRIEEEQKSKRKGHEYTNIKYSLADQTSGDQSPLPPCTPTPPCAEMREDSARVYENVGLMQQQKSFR
Test: SHP2 allosteric inhibitor enzyme activity assay (DiFMUP fluorescence)
Assay type: biochemical
Conditions: class symbols
Procedure, shortened: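 SHP2 activated by 0.5 μM IRS1_pY1172(dPEG8)pY1222 peptide, 0.2 ng enzyme per well, 1 h at room temperature with compound (1 μM top, 3-fold series), then DiFMUP substrate 1 h. Buffer: 60 mM HEPES, 75 mM NaCl, 75 mM KCl, 0.05% BRIJ-35, 1 mM EDTA, 5 mM DTT. Fluorescence ex 340/em 450 nm; IC50 by variable-slope fit.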

| Compound | IC50 [nM] |
| --- | --- |
| CN(C)c1nccc(C2(c3n[nH]c4nc(N5CCC6(CC5)Cc5ccccc5[C@H]6N)[nH]c(=O)c34)CC2)c1Cl [Example 61, (S)-6-(1-amino-1,3-dihydrospiro[indene-2,4′-piperidin]-1′-yl)-3-(1-(3-chloro-2-(dimethylamino)pyridin-4-yl)cyclopropyl)-1,5-dihydro-4H-pyrazolo[3,4-d]pyrimidin-4-one] | ≤ 20 |
| N[C@@H]1c2ccccc2CC12CCN(c1nc3[nH]nc(C4(c5ccccn5)CCC4)c3c(=O)[nH]1)CC2 [Example 93, (S)-6-(1-amino-1,3-dihydrospiro[indene-2,4′-piperidin]-1′-yl)-3-(1-(pyridin-2-yl)cyclobutyl)-1,5-dihydro-4H-pyrazolo[3,4-d]pyrimidin-4-one] | ≤ 20 |
| N[C@@H]1c2ccccc2CC12CCN(c1nc3[nH]nc(C4(c5ccc[s+]5[O-])CC4)c3c(=O)[nH]1)CC2 (stereo partly drawn) [Example 242, 6-((S)-1-amino-1,3-dihydrospiro[indene-2,4′-piperidin]-1′-yl)-3-(1-(1-oxidothiophen-2-yl)cyclopropyl)-1,5-dihydro-4H-pyrazolo[3,4-d]pyrimidin-4-one] | ≤ 20 |
| Cn1cc2c(n1)CC(C)(C)C=C2c1n[nH]c2nc(N3CCC4(CC3)Cc3ccccc3[C@H]4N)[nH]c(=O)c12 [Example 153, (S)-6-(1-amino-1,3-dihydrospiro[indene-2,4′-piperidin]-1′-yl)-3-(2,6,6-trimethyl-6,7-dihydro-2H-indazol-4-yl)-1,5-dihydro-4H-pyrazolo[3,4-d]pyrimidin-4-one] | ≤ 20 |
| C[C@@H]1OCC2(CCN(c3nc4[nH]nc(C5(c6ccccc6)CC5)c4c(=O)[nH]3)CC2)[C@@H]1N [Example 270, 6-((3S,4S)-4-amino-3-methyl-2-oxa-8-azaspiro[4.5]decan-8-yl)-3-(1-phenylcyclopropyl)-1,5-dihydro-4H-pyrazolo[3,4-d]pyrimidin-4-one] | 20 to 60 |
| CC1(C)C=C(c2n[nH]c3nc(N4CCC5(CC4)Cc4ccccc4[C@H]5N)[nH]c(=O)c23)c2cc(C#N)cnc2C1 [Example 163, (S)-5-(6-(1-amino-1,3-dihydrospiro[indene-2,4′-piperidin]-1′-yl)-4-oxo-4,5-dihydro-1H-pyrazolo[3,4-d]pyrimidin-3-yl)-7,7-dimethyl-7,8-dihydroquinoline-3-carbonitrile] | ≤ 20 |
| N[C@@H]1c2ccccc2CC12CCN(c1nc3[nH]nc(C4=CCNc5ccccc54)c3c(=O)[nH]1)CC2 [Example 177, (S)-6-(1-amino-1,3-dihydrospiro[indene-2,4′-piperidin]-1′-yl)-3-(1,2-dihydroquinolin-4-yl)-1,5-dihydro-4H-pyrazolo[3,4-d]pyrimidin-4-one] | ≤ 20 |
| Cn1c2c(c3ccccc31)C(c1n[nH]c3nc(N4CCC5(CC4)Cc4ccccc4[C@H]5N)[nH]c(=O)c13)=CCC2 [Example 113, (S)-6-(1-amino-1,3-dihydrospiro[indene-2,4′-piperidin]-1′-yl)-3-(9-methyl-2,9-dihydro-1H-carbazol-4-yl)-1,5-dihydro-4H-pyrazolo[3,4-d]pyrimidin-4-one] | ≤ 20 |
| C[C@@H]1OCC2(CCN(c3nc4[nH]nc(C5(c6ccc(O)cc6)CC5)c4c(=O)[nH]3)CC2)[C@@H]1N [Example 311, 6-((3S,4S)-4-amino-3-methyl-2-oxa-8-azaspiro[4.5]decan-8-yl)-3-(1-(4-hydroxyphenyl)cyclopropyl)-1,5-dihydro-4H-pyrazolo[3,4-d]pyrimidin-4-one] | 20 to 60 |
| N[C@@H]1c2ccccc2CC12CCN(c1nc3[nH]nc(C4=CCCc5nc(C(F)(F)F)cc(C(F)(F)F)c54)c3c(=O)[nH]1)CC2 [Example 137, (S)-6-(1-amino-1,3-dihydrospiro[indene-2,4′-piperidin]-1′-yl)-3-(2,4-bis(trifluoromethyl)-7,8-dihydroquinolin-5-yl)-1,5-dihydro-4H-pyrazolo[3,4-d]pyrimidin-4-one] | 20 to 60 |
| N[C@@H]1c2ccccc2CC12CCN(c1nc3[nH]nc(C4(c5ccc(F)c(F)c5)CC4)c3c(=O)[nH]1)CC2 [Example 20, (S)-6-(1-amino-1,3-dihydrospiro[indene-2,4′-piperidin]-1′-yl)-3-(1-(3,4-difluorophenyl)cyclopropyl)-1,5-dihydro-4H-pyrazolo[3,4-d]pyrimidin-4-one] | ≤ 20 |
| C[C@@H]1OCC2(CCN(c3nc4[nH]nc(C5(c6ccccc6)CC5)c4c(=O)n3C)CC2)[C@@H]1N [Example 272, 6-((3S,4S)-4-amino-3-methyl-2-oxa-8-azaspiro[4.5]decan-8-yl)-5-methyl-3-(1-phenylcyclopropyl)-1,5-dihydro-4H-pyrazolo[3,4-d]pyrimidin-4-one] | 20 to 60 |
| C[C@@H]1OCC2(CCN(c3nc4[nH]nc(C5(c6cccc(F)c6)CC5)c4c(=O)[nH]3)CC2)[C@@H]1N [Example 293, 6-((3S,4S)-4-amino-3-methyl-2-oxa-8-azaspiro[4.5]decan-8-yl)-3-(1-(3-fluorophenyl)cyclopropyl)-1,5-dihydro-4H-pyrazolo[3,4-d]pyrimidin-4-one] | 20 to 60 |
| Cc1ncc2c(n1)CC(C)(C)C=C2c1n[nH]c2nc(N3CCC4(CC3)Cc3ccccc3[C@H]4N)[nH]c(=O)c12 [Example 147, (S)-6-(l-amino-1,3-dihydrospiro[indene-2,4'-piperidin]-1′-yl)-3-(2,7,7-trimethyl-7,8-dihydroquinazolin-5-yl)-1,5-dihydro-4H-pyrazolo[3,4-d]pyrimidin-4-one] | ≤ 20 |
| N[C@@H]1c2cc(F)ccc2CC12CCN(c1nc3[nH]nc(C4(c5ccccc5)CC4)c3c(=O)[nH]1)CC2 [Example 195, (S)-6-(1-amino-6-fluoro-1,3-dihydrospiro[indene-2,4′-piperidin]-1′-yl)-3-(1-phenylcyclopropyl)-1,5-dihydro-4H-pyrazolo[3,4-d]pyrimidin-4-one] | ≤ 20 |
| C[C@@H]1OCC2(CCN(c3nc4[nH]nc(C5(c6cc7ccccc7[nH]6)CC5)c4c(=O)[nH]3)CC2)[C@@H]1N [Example 285, 3-(1-(1H-indol-2-yl)cyclopropyl)-6-((3S,4S)-4-amino-3-methyl-2-oxa-8-azaspiro[4.5]decan-8-yl)-1,5-dihydro-4H-pyrazolo[3,4-d]pyrimidin-4-one] | > 60 |
| Cc1cccc(C2(c3n[nH]c4nc(N5CCC6(CC5)CO[C@@H](C)[C@H]6N)[nH]c(=O)c34)CC2)c1 [Example 301, 6-((3S,4S)-4-amino-3-methyl-2-oxa-8-azaspiro[4.5]decan-8-yl)-3-(1-(m-tolyl)cyclopropyl)-1,5-dihydro-4H-pyrazolo[3,4-d]pyrimidin-4-one] | 20 to 60 |
| Cc1cc(C(F)F)c2c(n1)CCC=C2c1n[nH]c2nc(N3CCC4(CC3)Cc3ccccc3[C@H]4N)[nH]c(=O)c12 [Example 142, (S)-6-(1-amino-1,3-dihydrospiro[indene-2,4′-piperidin]-1′-yl)-3-(4-(difluoromethyl)-2-methyl-7,8-dihydroquinolin-5-yl)-1,5-dihydro-4H-pyrazolo[3,4-d]pyrimidin-4-one] | 20 to 60 |
| N[C@@H]1c2ccccc2CC12CCN(c1nc3[nH]nc(C4(c5ncccn5)CC4)c3c(=O)[nH]1)CC2 [Example 245, (S)-6-(1-amino-1,3-dihydrospiro[indene-2,4′-piperidin]-1′-yl)-3-(1-(pyrimidin-2-yl)cyclopropyl)-1,5-dihydro-4H-pyrazolo[3,4-d]pyrimidin-4-one] | ≤ 20 |
